Experimental data: PubChem BioAssay (NCI)
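Five compound concentrations were applied to cells in 96-well plates for 48 hours; endpoints were derived by simple linear interpolation of the resulting dose-response curve. TGI denotes the concentration required for complete inhibition of growth.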

What was measured:
Assay in all cases: inhibition of tumour cell growth, NCI panel, 48 h
[1] = system: ACHN renal
[2] = system: COLO 205 colon
[3] = system: SNB-75 CNS
[4] = system: MDA-MB-435
[5] = system: EKVX NSCLC
[6] = system: SK-OV-3 ovarian
[7] = system: MDA-MB-231 breast
[8] = system: NCI-H23 lung
[9] = system: A549 NSCLC
[10] = system: 786-0 renal
[11] = system: A498 renal
[12] = system: K-562 leukemia
[13] = system: CCRF-CEM leukemia
[14] = system: OVCAR-8 ovarian
[15] = system: HT29 colon
[16] = system: U251 CNS
[17] = system: HOP-92 NSCLC
[18] = system: OVCAR-4 ovarian
[19] = system: SR leukemia
[20] = system: NCI-H522 lung
[21] = system: HS 578T breast
[22] = system: IGROV1 ovarian
[23] = system: SNB-19 CNS
[24] = system: M14 melanoma
[25] = system: HCT-116 colon
[26] = system: CAKI-1 renal
[27] = system: DU-145 prostate
[28] = system: SK-MEL-28 melanoma
[29] = system: HOP-62 NSCLC
[30] = system: TK-10 renal
[31] = system: MDA-N
[32] = system: NCI-H226 lung
[33] = system: NCI-H460 lung
[34] = system: MALME-3M melanoma
[35] = system: NCI/ADR-RES ovarian
[36] = system: PC-3 prostate
[37] = system: UACC-62 melanoma
[38] = system: RXF 393 renal
[39] = system: T-47D breast
[40] = system: SW-620 colon
[41] = system: KM12 colon
[42] = system: SN12C renal
[43] = system: SF-295 CNS
[44] = system: HCC-2998 colon
[45] = system: OVCAR-5 ovarian
[46] = system: SK-MEL-2 melanoma
[47] = system: SF-268 CNS
[48] = system: UO-31 renal
[49] = system: SK-MEL-5 melanoma
[50] = system: MCF7 breast
[51] = system: OVCAR-3 ovarian
[52] = system: UACC-257 melanoma
[53] = system: SF-539 CNS
[54] = system: BT-549 breast
[55] = system: LOX IMVI melanoma
[56] = system: HCT-15 colon
[57] = system: RPMI-8226 leukemia
[58] = system: HL-60(TB) leukemia
[59] = system: MOLT-4 leukemia

Work on O=C1C[C@H](Sc2ccccc2)C2(OCCO2)[C@@H](Sc2ccccc2)C1 yielded a TGI [1] of 5.62 µM, a TGI [2] of 15.4 µM and a TGI [3] of 26 µM. For the same compound, the TGI [4] was 7.97 µM, the TGI [5] was 17.1 µM and the TGI [6] was 24.7 µM. The TGI [7] was 5.78 µM, the TGI [8] was 6.08 µM and the TGI [9] was 28 µM. It also gave a TGI [10] greater than 30.2 µM, a TGI [11] greater than 66.7 µM and a TGI [12] of 0.673 µM. For the same compound, the TGI [13] was 1.76 µM, the TGI [14] was 8.02 µM and the TGI [15] was 3.7 µM. The TGI [16] was 6.76 µM, the TGI [17] was 5.74 µM and the TGI [18] was 28.4 µM. It also gave a TGI [19] of 1.22 µM, a TGI [20] of 1.81 µM and a TGI [21] of 5.85 µM. The TGI [22] was 3.49 µM, the TGI [23] was greater than 43.6 µM and the TGI [24] was 6.52 µM. For the same compound, the TGI [25] was 4.81 µM, the TGI [26] was 12.8 µM and the TGI [27] was 14.1 µM. It also gave a TGI [28] of 10.4 µM, a TGI [29] of 13.6 µM and a TGI [30] of 6.96 µM. It also gave a TGI [31] of 6.83 µM, a TGI [32] of 6.03 µM and a TGI [33] greater than 44.5 µM. For the same compound, the TGI [34] was 7.81 µM, the TGI [35] was 4.92 µM and the TGI [36] was 13.8 µM. The TGI [37] was 4.63 µM, the TGI [38] was 4.25 µM and the TGI [39] was greater than 43.5 µM. It also gave a TGI [40] of 10.4 µM, a TGI [41] of 7.36 µM and a TGI [42] of 10.6 µM. It also gave a TGI [43] of 17.9 µM, a TGI [44] of 6.42 µM and a TGI [45] of 12.3 µM. It also gave a TGI [46] of 26.3 µM, a TGI [47] of 8.83 µM and a TGI [48] of 3.49 µM. It also gave a TGI [49] of 4.23 µM, a TGI [50] of 6.01 µM and a TGI [51] of 7.94 µM. For the same compound, the TGI [52] was 4.51 µM, the TGI [53] was 4.05 µM and the TGI [54] was 5.41 µM. It also gave a TGI [55] of 2.17 µM.

Clc1ccc(-c2nn3c(-c4ccncc4)nnc3s2)cc1 was tested, and the TGI [1] was greater than 100 µM, the TGI [2] was greater than 100 µM and the TGI [4] was greater than 100 µM. For the same compound, the TGI [5] was greater than 100 µM, the TGI [6] was 84.9 µM and the TGI [7] was greater than 100 µM. The TGI [8] was greater than 100 µM, the TGI [56] was 90.7 µM and the TGI [9] was greater than 100 µM. The TGI [10] was 61.9 µM, the TGI [12] was greater than 100 µM and the TGI [13] was greater than 100 µM. It also gave a TGI [14] greater than 100 µM, a TGI [15] greater than 100 µM and a TGI [16] of 75 µM. For the same compound, the TGI [17] was greater than 100 µM, the TGI [18] was greater than 100 µM and the TGI [19] was greater than 100 µM. It also gave a TGI [20] greater than 100 µM, a TGI [21] greater than 100 µM and a TGI [22] greater than 100 µM. It also gave a TGI [23] greater than 100 µM, a TGI [24] greater than 100 µM and a TGI [25] greater than 100 µM. For the same compound, the TGI [26] was greater than 100 µM, the TGI [27] was greater than 100 µM and the TGI [29] was 51.3 µM. It also gave a TGI [30] greater than 100 µM, a TGI [31] greater than 100 µM and a TGI [32] greater than 100 µM. It also gave a TGI [33] greater than 100 µM, a TGI [34] greater than 100 µM and a TGI [57] greater than 100 µM. It also gave a TGI [35] greater than 100 µM, a TGI [36] greater than 100 µM and a TGI [37] greater than 100 µM. For the same compound, the TGI [38] was 82.1 µM, the TGI [39] was greater than 100 µM and the TGI [40] was greater than 100 µM. The TGI [41] was greater than 100 µM, the TGI [42] was greater than 100 µM and the TGI [43] was greater than 100 µM. For the same compound, the TGI [45] was greater than 100 µM, the TGI [46] was greater than 100 µM and the TGI [47] was greater than 100 µM. The TGI [58] was greater than 100 µM, the TGI [48] was greater than 100 µM and the TGI [49] was greater than 100 µM. For the same compound, the TGI [50] was greater than 100 µM, the TGI [51] was greater than 100 µM and the TGI [52] was greater than 100 µM. For the same compound, the TGI [53] was greater than 100 µM, the TGI [59] was greater than 100 µM and the TGI [54] was greater than 100 µM. It also gave a TGI [55] greater than 100 µM.
